Laboratory results taken from PMC4045134, “Discovery of Triterpenoids as Reversible Inhibitors of α/β-hydrolase Domain Containing 12 (ABHD12)” (PLoS ONE, 2014).

How the values were obtained:
Type in all cases: biochemical
hABHD12 = target: T1, hABHD12 (Homo sapiens, UniProt Q8N2K0); test: Reversibility testing, 40-fold dilution of enzyme-inhibitor complex; conditions: time points 10, 20, 30, 60 and 90 min
T1 construct: expressed in transfected cells; host or cells: HEK293 (transient)
T1 sequence (Q8N2K0 1-398): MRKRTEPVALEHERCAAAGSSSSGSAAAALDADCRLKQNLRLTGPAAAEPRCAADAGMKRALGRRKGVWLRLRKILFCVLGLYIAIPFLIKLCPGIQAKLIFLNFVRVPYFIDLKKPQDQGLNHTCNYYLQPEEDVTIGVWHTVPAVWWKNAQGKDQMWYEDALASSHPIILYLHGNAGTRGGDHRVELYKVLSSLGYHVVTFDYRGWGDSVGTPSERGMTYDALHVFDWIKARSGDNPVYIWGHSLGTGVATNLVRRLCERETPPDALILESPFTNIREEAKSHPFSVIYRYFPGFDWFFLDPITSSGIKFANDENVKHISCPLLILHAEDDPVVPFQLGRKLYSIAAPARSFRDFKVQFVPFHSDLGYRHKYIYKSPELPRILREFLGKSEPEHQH
Method: Reversibility testing was carried out as previously described. Briefly, DMSO/inhibitor (0.5 µl) was incubated together with hABHD12-HEK293 lysate (4.5 µl, 0.3 µg protein/well) in TEMN-BSA buffer for 30 min. After this, a 40-fold dilution of enzyme-inhibitor complex was brought about by addition of the substrate [1-AG, 12.5 µM final concentration, containing additionally 1% EtOH (v/v)] in 195 µl of glycerol assay mix and fluorescence was kinetically monitored at 10 min intervals for 90 min at RT.

CB1R [1] = target: T2, CB1R (Rattus norvegicus, UniProt P20272); test: [35S]GTPγS binding, CB1R antagonist activity, rat cerebellar membranes; conditions: 10 µM
T2 construct: membranes prepared from brain tissue of 4-week-old male rodents were used; from tissue; host or cells: rat cerebellar membranes
Method: (§1) The CB1 and CB2 receptor activity of the selected compounds (10 µM) were measured using the GTPγS binding assay according to the previously described methods, [33].
(§2) For ABPP experiments (Figure 6C) and cannabinoid receptor activity assays (Table S2), membranes prepared from brain tissue of 4-week-old male rodents were used. The animals were obtained from the National Laboratory Animal Centre, University of Eastern Finland. Approval for the harvesting of animal tissue was obtained from the local welfare officer of the University of Eastern Finland.

hMAGL = target: T3, hMAGL (Homo sapiens, UniProt Q99685); test: Fluorescent glycerol assay in hMAGL-HEK293 lysates; conditions: 10 µM; read-out: hMAGL Remaining activity % control ± s.e.m (n=3)
T3 construct: expressed in transfected cells; host or cells: HEK293 (transient)
T3 sequence (Q99685 1-303): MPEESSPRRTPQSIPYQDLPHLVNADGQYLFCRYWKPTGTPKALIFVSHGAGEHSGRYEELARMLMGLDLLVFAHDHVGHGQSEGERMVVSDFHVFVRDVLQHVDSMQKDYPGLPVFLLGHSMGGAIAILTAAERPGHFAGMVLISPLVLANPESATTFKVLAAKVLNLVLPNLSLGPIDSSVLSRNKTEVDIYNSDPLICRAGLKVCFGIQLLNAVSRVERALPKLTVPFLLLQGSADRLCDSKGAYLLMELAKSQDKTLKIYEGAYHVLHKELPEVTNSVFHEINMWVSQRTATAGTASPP

CB1R [2] = target: T2, CB1R; test: [35S]GTPγS binding, CB1R agonist activity, rat cerebellar membranes; conditions: 10 µM
Method: as §1, §2

T2 sequence (P20272 whole entry): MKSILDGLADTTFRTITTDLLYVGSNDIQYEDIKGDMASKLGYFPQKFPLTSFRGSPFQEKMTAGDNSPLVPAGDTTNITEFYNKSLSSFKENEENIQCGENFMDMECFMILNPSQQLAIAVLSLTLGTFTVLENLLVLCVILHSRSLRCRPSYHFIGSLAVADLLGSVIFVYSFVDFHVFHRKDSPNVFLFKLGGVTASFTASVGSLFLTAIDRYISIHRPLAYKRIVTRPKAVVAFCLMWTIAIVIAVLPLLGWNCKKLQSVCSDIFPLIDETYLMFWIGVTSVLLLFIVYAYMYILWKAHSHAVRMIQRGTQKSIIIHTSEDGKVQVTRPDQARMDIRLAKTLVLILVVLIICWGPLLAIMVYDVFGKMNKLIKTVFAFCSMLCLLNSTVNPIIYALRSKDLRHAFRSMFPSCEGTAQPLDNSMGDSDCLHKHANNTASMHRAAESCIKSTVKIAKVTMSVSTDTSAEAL

CC1(C)CC[C@]2(C(=O)O)CC[C@]3(C)C(=CC[C@@H]4[C@@]5(C)C[C@@H](O)[C@H](O)C(C)(C)[C@@H]5CC[C@]43C)[C@@H]2C1 [Compound 8, Maslinic acid, reference compound]
time-dependency of inhibitor potency (IC50) after 40-fold dilution (hABHD12): time-dependent drop of inhibitor potency
CB1R antagonist activity [35S]GTPγS binding % HU210-evoked response (Mean (range), n=2) (CB1R [1]): 99 (97-102) % HU210-evoked response
remaining activity at 10 µM (hMAGL): 95.6 ± 0.8%
CB1R agonist activity [35S]GTPγS binding % Basal (Mean (range), n=2) (CB1R [2]): 93 (88-97) % Basal
